Reference: BigSolDB 2.1

CC(=O)c1cccc(O)c1
solubility (mole fraction)
Settings | in benzene | in ethanol | in ethyl acetate | in isobutanol | in isopropanol | in methanol | in methyl acetate | in n-butanol | in n-propanol | in water
289.15 K | 0.00506 | 0.166 | 0.158 | 0.119 | 0.176 | 0.156 | 0.16 | 0.154 | 0.152 | 0.00073
292.15 K | 0.00532 | 0.175 | 0.168 | 0.126 | 0.184 | 0.169 | 0.171 | 0.163 | 0.161 | 0.00078
295.15 K | 0.00707 | 0.19 | 0.18 | 0.146 | 0.201 | 0.185 | 0.182 | 0.172 | 0.18 | 0.001
298.15 K | 0.00848 | 0.209 | 0.191 | 0.166 | 0.22 | 0.203 | 0.197 | 0.189 | 0.199 | 0.00106
301.15 K | 0.0122 | 0.225 | 0.199 | 0.184 | 0.236 | 0.22 | 0.209 | 0.203 | 0.211 | 0.00113
304.15 K | 0.015 | 0.245 | 0.214 | 0.205 | 0.256 | 0.239 | 0.229 | 0.221 | 0.23 | 0.00154
307.15 K | 0.0198 | 0.263 | 0.235 | 0.235 | 0.275 | 0.255 | 0.253 | 0.242 | 0.252 | 0.00172
310.15 K | 0.0238 | 0.287 | 0.254 | 0.265 | 0.3 | 0.279 | 0.274 | 0.261 | 0.274 | 0.00199
313.15 K | 0.0281 | 0.308 | 0.277 | 0.293 | 0.324 | 0.302 | 0.298 | 0.284 | 0.299 | 0.00245
316.15 K | 0.0308 | 0.335 | 0.304 | 0.32 | 0.349 | 0.328 | 0.324 | 0.309 | 0.329 | 0.00291
319.15 K | 0.037 | 0.361 | 0.333 | 0.348 | 0.372 | 0.349 | 0.346 | 0.335 | 0.36 | 0.00362
322.15 K | 0.0453 | 0.391 | 0.364 | 0.38 | 0.401 | 0.383 | 0.376 | 0.368 | 0.395 | 0.00456
325.15 K | 0.0614 | 0.42 | 0.384 | 0.421 | 0.431 | 0.409 | 0.407 | 0.402 | 0.425 | 0.00562
